From patent US9833497B2, “Human originated EGF domain proteins and use of the same” (CHENGDU SOURCEBIO LIMITED-LIABILITY COMPANY, priority 2013, dated 2017)

Key:
Type in all cases: cell-based
E. coli DH5α = assay: Antibacterial activity: MIC and growth curve against E. coli DH5α in 96-well plate; conditions: minimal inhibitory concentration against E. coli DH5α; 96-well plate, 5×10^5 CFU/mL, 37° C., judged after 8 h
Outline: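 Log-phase DH5α (OD600 about 0.5, 37° C, 185 rpm in LB) was pelleted, resuspended in fresh LB and seeded at 5×10^5 CFU/mL with recombinant protein at 50, 25 and 12.5 μg/mL (two-fold series), in triplicate. Plates were shaken at 175 rpm, 37° C, and OD600 was read every 30 min. MIC was the lowest concentration with no growth.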

E. coli BL21 = assay: MIC against Gram-negative bacteria: E. coli BL21; conditions: E. coli BL21; 10 h cultivation at 37° C.; 5×10^5 CFU/mL
Outline: (§1)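 The recombinant human-originated EGF domain proteins were serially diluted two-fold against bacteria at 5×10^5 CFU/mL in LB medium. After shaken incubation at 37° C, the lowest concentration with no bacterial growth was recorded as the MIC.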

Pseudomonas aeruginosa = assay: MIC against Gram-negative bacteria: Pseudomonas aeruginosa; conditions: P. aeruginosa; 10 h cultivation at 37° C.; 5×10^5 CFU/mL
Outline: as §1

Klebsiella pneumonia = assay: MIC against Gram-negative bacteria: Klebsiella pneumonia; conditions: K. pneumonia; 10 h cultivation at 37° C.; 5×10^5 CFU/mL
Outline: as §1

Enterobacter cloacae = assay: MIC against Gram-negative bacteria: Enterobacter cloacae; conditions: E. cloacae; 10 h cultivation at 37° C.; 5×10^5 CFU/mL
Outline: as §1

Aeromonas hydrophila = assay: MIC against Gram-negative bacteria: Aeromonas hydrophila; conditions: A. hydrophila; 10 h cultivation at 37° C.; 5×10^5 CFU/mL
Outline: as §1

Citrobacter diversus = assay: MIC against Gram-negative bacteria: Citrobacter diversus; conditions: C. diversus; 10 h cultivation at 37° C.; 5×10^5 CFU/mL
Outline: as §1

Moraxella catarrhalis = assay: MIC against Gram-negative bacteria: Moraxella catarrhalis; conditions: M. catarrhalis; 10 h cultivation at 37° C.; 5×10^5 CFU/mL
Outline: as §1

Proteus mirabilis = assay: MIC against Gram-negative bacteria: Proteus mirabilis; conditions: P. mirabilis; 10 h cultivation at 37° C.; 5×10^5 CFU/mL
Outline: as §1

Proteus vulgaris = assay: MIC against Gram-negative bacteria: Proteus vulgaris; conditions: P. vulgaris; 10 h cultivation at 37° C.; 5×10^5 CFU/mL
Outline: as §1

Serratia marcescens = assay: MIC against Gram-negative bacteria: Serratia marcescens; conditions: S. marcescens; 10 h cultivation at 37° C.; 5×10^5 CFU/mL
Outline: as §1

Row | Substance | MIC (E. coli DH5α) [µg/mL] | MIC (μg/mL) E. coli BL21 (E. coli BL21) [µg/mL] | MIC (μg/mL) P. aeruginosa (Pseudomonas aeruginosa) [µg/mL] | MIC (μg/mL) K. pneumonia (Klebsiella pneumonia) [µg/mL] | MIC (μg/mL) E. cloacae (Enterobacter cloacae) [µg/mL] | MIC (μg/mL) A. hydrophila (Aeromonas hydrophila) [µg/mL] | MIC (μg/mL) C. diversus (Citrobacter diversus) [µg/mL] | MIC (μg/mL) M. catarrhalis (Moraxella catarrhalis) [µg/mL] | MIC (μg/mL) P. mirabilis (Proteus mirabilis) [µg/mL] | MIC (μg/mL) P. vulgaris (Proteus vulgaris) [µg/mL] | MIC (μg/mL) S. marcescens (Serratia marcescens) [µg/mL]
1 | PRT780 (EYSSCSRHPCQNGGTCINGRTSFTCACRHPFTGDNCT; listed as Homo sapiens) | 12.5 | 50 | 12.5 | 50 | 12.5 | 50 | 25 | 12.5 | 25 | 50 | 12.5
2 | PRT782 (AERCDCSHADGCHPTTGHCRCLPGWSGVHCD; listed as Homo sapiens) | 50 | 25 | 12.5 | 12.5 | 12.5 | 12.5 | 12.5 | 12.5 | 25 | 12.5 | 50
3 | PRT783 (WGPNCSLPCYCKNGASCSPDDGICECAPGFRGTTCQ; listed as Homo sapiens) | 25 | 12.5 | 50 | 12.5 | 25 | 50 | 25 | 12.5 | 25 | 50 | 12.5
4 | PRT784 (FGKNCAGICTCTNNGTCNPIDRSCQCYPGWIGSDCS; listed as Homo sapiens) | 50 | 25 | 12.5 | 50 | 12.5 | 50 | 12.5 | 50 | 12.5 | 50 | 12.5
5 | PRT785 (IHTCNCHNGAFCSAYDGECKCTPGWTGLYCT; listed as Homo sapiens) | 25 | 50 | 25 | 25 | 12.5 | 50 | 12.5 | 25 | 50 | 25 | 50
6 | PRT786 (YGKDCALICQCQNGADCDHISGQCTCRTGFMGRHCE; listed as Homo sapiens) | 50 | 25 | 12.5 | 50 | 12.5 | 12.5 | 25 | 12.5 | 25 | 12.5 | 12.5
7 | PRT787 (RQICDCLNNSTCDHITGTCYCSPGWKGARCD; listed as Homo sapiens) | 12.5 | 12.5 | 12.5 | 12.5 | 12.5 | 12.5 | 25 | 50 | 25 | 25 | 12.5
8 | PRT788 (WGPHCTSRCQCKNGALCNPITGACHCAAGFRGWRCE; listed as Homo sapiens) | 50 | 100 | 50 | 25 | 12.5 | 25 | 50 | 25 | 12.5 | 50 | 50
9 | PRT789 (YGNDCHQRCQCQNGATCDHVTGECRCPPGYTGAFCE; listed as Homo sapiens) | 25 | 50 | 25 | 12.5 | 50 | 12.5 | 25 | 25 | 50 | 25 | 12.5
10 | PRT790 (HGPQCEQRCPCQNGGVCHHVTGECSCPSGWMGTVCG; listed as Homo sapiens) | 25 | 50 | 25 | 25 | 12.5 | 25 | 50 | 25 | 12.5 | 50 | 12.5
11 | PRT791 (SQECQCHNGGTCDAATGQCHCSPGYTGERCQ; listed as Homo sapiens) | 50 | 12.5 | 50 | 12.5 | 50 | 12.5 | 25 | 50 | 25 | 12.5 | 12.5
12 | PRT792 (YGVLCAETCQCVNGGKCYHVSGACLCEAGFAGERCE; listed as Homo sapiens) | 12.5 | 50 | 12.5 | 12.5 | 25 | 50 | 25 | 12.5 | 50 | 12.5 | 50
13 | PRT793 (YGEACQQICSCQNGADCDSVTGKCTCAPGFKGIDCS; listed as Homo sapiens) | 25 | 12.5 | 50 | 12.5 | 25 | 50 | 25 | 12.5 | 25 | 50 | 12.5
14 | PRT794 (SSRCGCKNDAVCSPVDGSCTCKAGWHGVDCS; listed as Homo sapiens) | 50 | 12.5 | 50 | 12.5 | 25 | 50 | 25 | 12.5 | 25 | 50 | 12.5
15 | PRT795 (WGFGCNLTCQCLNGGACNTLDGTCTCAPGWRGEKCE; listed as Homo sapiens) | 50 | 25 | 50 | 50 | 12.5 | 25 | 50 | 25 | 25 | 25 | 50
16 | PRT796 (SGDFCIPLCTEECVHGRCVSPDTCHCEPGWGGPDCS; listed as Homo sapiens) | 25 | 50 | 12.5 | 50 | 50 | 50 | 5 | 50 | 12.5 | 50 | 50
